From patent US7510847B2, “Kidney-specific urate transporter and gene thereof” (Human Cell Systems, Inc., priority 2001, dated 2009) come the findings set out here.

Data set [1] addresses T1, URAT1 (Homo sapiens, UniProt Q96S37).
T1 sequence (Q96S37 1-553): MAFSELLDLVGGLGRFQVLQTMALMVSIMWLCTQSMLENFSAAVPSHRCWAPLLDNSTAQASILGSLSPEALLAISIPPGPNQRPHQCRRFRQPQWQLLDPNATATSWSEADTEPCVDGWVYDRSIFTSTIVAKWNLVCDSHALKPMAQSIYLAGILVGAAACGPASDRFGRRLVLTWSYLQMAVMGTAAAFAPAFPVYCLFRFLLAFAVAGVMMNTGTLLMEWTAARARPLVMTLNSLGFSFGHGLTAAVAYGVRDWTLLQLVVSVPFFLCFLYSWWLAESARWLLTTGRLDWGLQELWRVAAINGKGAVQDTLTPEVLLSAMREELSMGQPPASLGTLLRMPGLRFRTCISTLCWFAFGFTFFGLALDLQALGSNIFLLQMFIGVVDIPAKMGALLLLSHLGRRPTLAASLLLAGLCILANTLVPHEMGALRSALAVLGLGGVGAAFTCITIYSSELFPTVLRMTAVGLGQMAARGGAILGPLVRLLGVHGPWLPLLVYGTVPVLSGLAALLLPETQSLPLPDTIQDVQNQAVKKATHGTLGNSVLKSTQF
Kind of data set: inhibition of [14C] uric acid uptake by oocytes injected with URAT1 cRNA.

The target in data set [2] is T1, URAT1. Description: uric acid uptake by URAT1 oocytes after preincubation with or pre-injection of organic acids (exchange substrate study). The format is cell-based. Also noted: expressed in transfected cells; host or cells: Xenopus laevis oocytes ("platanna") injected with URAT1 cRNA. The note with it: for uptake of radiolabeled uric acid after precedent injection of organic acid into oocytes: 100 nl of 100 mM injected, compared to water injected, FIG. 7; for uptake of uric acid after preincubation of oocytes with organic acid: preincubation 1 mM, oocytes injected with URAT1 cRNA, FIG. 6. The procedure: Therefore, 100 nl of 100 mM non-radiolabeled L-lactic acid was precedently injected in the oocytes, and then the uptake of the radiolabeled uric acid was observed (FIG. 7).

Data set [3] concerns the target T1, URAT1. Description: uptake of radiolabeled substrates by oocytes injected with URAT1 cRNA. To be noted: oocytes of platanna injected with URAT1 cRNA. The class given is cell-based. Also noted: expressed in transfected cells; host or cells: Xenopus laevis oocytes ("platanna") injected with URAT1 cRNA. The procedure:
Michaelis-Menten dynamic experiment in urate transport by URAT1 was carried out. Concentration dependency of uric acid in the transport by URAT1 was studied by examining change of uptake amounts of uric acid at various concentrations by URAT1. The uptake experiment of the radiolabeled uric acid was carried out using oocytes injected with URAT1 cRNA according to the method described above.

Substrate in data set [4]: O=c1[nH]c(=O)c2[nH]c(=O)[nH]c2[nH]1
The description is as above. The format is cell-based, human. To be noted: other: oocytes injected with URAT1 cRNA, FIG. 3.

Setting [5] is: 50 μM [14C] uric acid, pH 7.4, unlabeled compound at concentrations shown in FIG. 8.

On to `C[C@@H](O)C(=O)O` [D-lactic acid], for which, in data set [1] (setting [5]), the “inhibition of transport/uptake of [14C] uric acid by URAT1” value was “significantly inhibited”.

`C[C@H](O)C(=O)O` [L-lactic acid]: the “inhibition of transport/uptake of [14C] uric acid by URAT1” value in data set [1] (setting [5]) is listed as “significantly inhibited”. Further, the “uptake of radiolabeled uric acid after precedent injection of organic acid into oocytes” value in data set [2] is “significantly high uptake”.

The molecule `CCCCc1nc(Cl)c(CO)n1Cc1ccc(-c2ccccc2-c2nn[nH]n2)cc1` [Losartan] displayed an IC50 in data set [1] of approximately 20 µM. The “inhibition of transport/uptake of [14C] uric acid by URAT1” value in data set [1] (setting [5]) is recorded as “significantly inhibited”. With `Nc1ccc(C(=O)NCC(=O)O)cc1` [PAH, para-amino hippuric acid], the “inhibition of transport/uptake of [14C] uric acid by URAT1” value in data set [1] (setting [5]) was “did not show any inhibitory action”. Further, in data set [3], the “uptake of 14C-labeled substrate by oocytes expressing URAT1” value (“uptake of 14C-labeled substrate” below) was “No uptake”. Further, in data set [2], the “uptake of radiolabeled uric acid after precedent injection of organic acid into oocytes” value was “no change” and the “uptake of uric acid after preincubation of oocytes with organic acid” value (shortened to “uptake of uric acid”) is given as “not facilitated”.

For the molecule `CC[N+](CC)(CC)CC` [TEA, tetraethylammonium], the “inhibition of transport/uptake of [14C] uric acid by URAT1” value in data set [1] (setting [5]) is recorded as “did not show any inhibitory action”. Further, the “uptake of 14C-labeled substrate” value in data set [3] is “No uptake”. Regarding `CCc1oc2ccccc2c1C(=O)c1cc(Br)c(O)c(Br)c1` [benz-bromarone], in data set [1] (pH 7.4), the “inhibition of transport/uptake of [14C] uric acid by URAT1” value is listed as “significantly inhibited”. For the molecule `CC(O)C(=O)O` (stereo not shown) [lactic acid], the “uptake of uric acid” value in data set [2] is listed as “not facilitated”. On to `O=C(O)c1cccnc1` [nicotinic acid, 3-pyridine carboxylic acid], for which, in data set [1] (setting [5]), the “inhibition of transport/uptake of [14C] uric acid by URAT1” value is “significantly inhibited”. For the same molecule, the “uptake of uric acid” value in data set [2] is “significantly increased”. `CCCN(CCC)S(=O)(=O)c1ccc(C(=O)O)cc1` [probenecid]: the “inhibition of transport/uptake of [14C] uric acid by URAT1” value in data set [1] (setting [5]) is “significantly inhibited”. On to `O=C(O)c1cnccn1` [pyrazine carboxylic acid], for which, in data set [1] (setting [5]), the “inhibition of transport/uptake of [14C] uric acid by URAT1” value was “significantly inhibited”. The “uptake of uric acid” value in data set [2] was “significantly increased”. Turning to `O=C1C(CC[S+]([O-])c2ccccc2)C(=O)N(c2ccccc2)N1c1ccccc1` (stereo not shown) [sulfinpyrazon], the “inhibition of transport/uptake of [14C] uric acid by URAT1” value in data set [1] (setting [5]) was “significantly inhibited”. As for `O=c1[nH]c(=O)c2[nH]c(=O)[nH]c2[nH]1` [uric acid], the “uptake of 14C-labeled substrate” value in data set [3] is recorded as “showed uptake”. With Pyrazine dicarboxylic acid, in data set [1] (setting [5]), the “inhibition of transport/uptake of [14C] uric acid by URAT1” value is “slightly weak inhibitory effect”.

B1: URAT1 (Homo sapiens) (protein)
chain: MAFSELLDLVGGLGRFQVLQTMALMVSIMWLCTQSMLENFSAAVPSHRCWAPLLDNSTAQASILGSLSPEALLAISIPPGPNQRPHQCRRFRQPQWQLLDPNATATSWSEADTEPCVDGWVYDRSIFTSTIVAKWNLVCDSHALKPMAQSIYLAGILVGAAACGPASDRFGRRLVLTWSYLQMAVMGTAAAFAPAFPVYCLFRFLLAFAVAGVMMNTGTLLMEWTAARARPLVMTLNSLGFSFGHGLTAAVAYGVRDWTLLQLVVSVPFFLCFLYSWWLAESARWLLTTGRLDWGLQELWRVAAINGKGAVQDTLTPEVLLSAMREELSMGQPPASLGTLLRMPGLRFRTCISTLCWFAFGFTFFGLALDLQALGSNIFLLQMFIGVVDIPAKMGALLLLSHLGRRPTLAASLLLAGLCILANTLVPHEMGALRSALAVLGLGGVGAAFTCITIYSSELFPTVLRMTAVGLGQMAARGGAILGPLVRLLGVHGPWLPLLVYGTVPVLSGLAALLLPETQSLPLPDTIQDVQNQAVKKATHGTLGNSVLKSTQF
notes: expressed in transfected cells; host or cells: Xenopus laevis oocytes ("platanna") injected with URAT1 cRNA
As for B1, in data set [4], the Michaelis-Menten constant (Km) came out at 372 ± 25 µM.
